Measured values as given in US20260274857A1, “CRYSTAL OF DIHYDROPYRIDINONE DERIVATIVE OR SOLVATE THEREOF” (Shionogi & Co., Ltd., priority 2022, published 2026).

Columns and labels:
Format in all cases: physicochemical
[1] = Moisture adsorption/desorption isotherm measurement (DVS); settings: 25° C.
Text: The moisture adsorption/desorption isotherm measurement is a measurement method for measuring the adsorption and desorption behavior of moisture by measuring a weight change in a solid as a measurement target under each relative humidity condition.
As a basic measurement method, based on the dry weight at 0% RH (relative humidity 0%), the relative humidity is increased every 5% or 10%, and after the weight is stabilized at each relative humidity, the amount of adsorbed water can be determined from the weight increase from the reference value. Similarly, the desorption amount of water can be measured by decreasing the relative humidity every 5% or 10% from 100% RH or 95% RH.
By plotting the value of the weight change at each relative humidity, an adsorption/desorption isotherm can be obtained.
Sorption and desorption of adhesion water and crystal water are affected by particle size, crystallinity, crystal habit, and the like, so that the measurement results may slightly change.
The crystals and amorphous substances obtained in each Example were weighed in an aluminum pan, and allowed to stand at 25° C. and a relative humidity of 0%. The measurement was started after the compound was sufficiently dried and the weight was stabilized, and the weight when the relative humidity changed from 0% to 95% by 5% was recorded. Next, the weight when the relative humidity changed from 95% to 0% by 5% was recorded.
Device: DVS Advantage manufactured by Surface Measurement Systems

[2] = Solid stability test: storage stability (amount of analogous substance by HPLC, appearance); settings: temperature, temperature and humidity conditions, light irradiation; analogous substance by HPLC and appearance
Protocol: For the solid stability of the crystal of the compound represented by Formula (I) obtained in Example 1 and the crystal of the compound represented by Formula (II) obtained in Example 16, the chemical stability under temperature, temperature and humidity conditions, and light irradiation was evaluated. The proportion (%) of the analogous substance produced by an HPLC method and the change in appearance were evaluated.
About 10 mg of the crystal was accurately weighed in a 2 mL glass container with a polyethylene stopper. After the glass container was closed, the glass container was stored at 40° C. or 60° C. for 2 weeks, 1 month, 2 months, 3 months, or 6 months. A sample stored at 40° C. is referred to as a 40° C. hermetically sealed product, and a sample stored at 60° C. is referred to as a 60° C. hermetically sealed product. In a state where the glass container was opened, the glass container was stored at a relative humidity of 75±5% at 40° C. or a relative humidity of 89±5% for 2 weeks, 1 month, 2 months, 3 months or 6 months, or in the presence of silica gel at 40° C. for 1 month, 2 months, 3 months or 6 months. A sample stored at 40° C. and a relative humidity of 75±5% or 89±5% is referred to as a 40° C. and 75% relative humidity (also referred to as 40±2° C./75±5% RH) or 40° C. and 89% relative humidity (also referred to as 40±2° C./89% RH) stored product, and a sample stored in the presence of silica gel at 40° C. is referred to as a 40° C. stored product. The −40° C. hermetically sealed product was used as a standard product.
The amount of the analogous substance was measured by an area percentage method by the HPLC method under the following conditions.
HPLC Conditions 1 were used for the crystal and amorphous substance of the compound represented by Formula (I) obtained in Example 1, and HPLC conditions 2 were used for the crystal of the compound represented by Formula (II) obtained in Example 16.
• Detector: ultraviolet absorptiometer (measurement wavelength: 260 nm) • Column: YMC-Triart C18 ExRS, S-1.9 μm, 3.0×100 mm • Column temperature: constant temperature at near 40° C. • Mobile phase A: 0.1% formic acid aqueous solution • Mobile phase B: acetonitrile • Flow rate: about 0.6 mL/min • Injection amount: 3 μL • Sample cooler temperature: about 6° C. • Feed of mobile phase: The mixing ratio of mobile phase A and mobile phase B was changed as shown in Table 18 to control concentration gradient.
Column: Cortecs (2.7 μm 3.0×100 mm)
Column temperature: 40° C.
UV detection wavelength: 254 nm

[3] = Test Example 2: solid stability, 40° C. 89% RH 3 months, amount of analogous substance
Protocol: The crystal and amorphous substance of the compound represented by Formula (I) obtained in Example 1 were stored (40° C., 89% RH 3M) in a hermetically sealed container at 40° C. and a relative humidity of 89% for 3 months, and subjected to a solid stability test to evaluate the amount of an analogous substance.
The crystal or amorphous substance of the compound represented by Formula (I) obtained in Example 1 was dissolved in an acetonitrile aqueous solution (acetonitrile:water=1:1) to prepare a sample solution to be exactly 500 μg/mL.
The purity and the amount of the analogous substance were measured by an area percentage method under the HPLC conditions 1 described in Test Example 1.
The results of the crystal and amorphous substance of the compound represented by Formula (I) obtained in Example 1 are described in the following table. Impurities detected at a retention time (RT, retention time) of 17.527 minutes indicate an increase amount with respect to a standard product.

For `Cc1ccc(-n2nc3c(c2NC(=O)CS(C)(=O)=O)C(=O)N[C@@]2(CCOc4cc(F)cc(F)c42)C3)nc1` [crystal of the compound represented by Formula (I) obtained ], the “difference in water content between 0% RH and 95% RH” value ([1]; DVS) was “about 1.4%”, the Moisture adsorption amount ([1]; relative humidity 0.0%) was 0.000% and the Moisture desorption amount ([1]; relative humidity 0.0%) was 0.063%. The Moisture adsorption amount ([1]; relative humidity 5.0%) was 0.064%, the Moisture desorption amount ([1]; relative humidity 5.0%) was 0.153% and the Moisture adsorption amount ([1]; relative humidity 10.0%) was 0.115%. For the same compound, the Moisture desorption amount ([1]; relative humidity 10.0%) was 0.230%, the Moisture adsorption amount ([1]; relative humidity 15.0%) was 0.174% and the Moisture desorption amount ([1]; relative humidity 15.0%) was 0.316%. For the same compound, the Moisture adsorption amount ([1]; relative humidity 20.0%) was 0.234%, the Moisture desorption amount ([1]; relative humidity 20.0%) was 0.395% and the Moisture adsorption amount ([1]; relative humidity 25.0%) was 0.321%. The Moisture desorption amount ([1]; relative humidity 25.0%) was 0.509%, the Moisture adsorption amount ([1]; relative humidity 30.0%) was 0.449% and the Moisture desorption amount ([1]; relative humidity 30.0%) was 0.638%. The Moisture adsorption amount ([1]; relative humidity 35.0%) was 0.549%, the Moisture desorption amount ([1]; relative humidity 35.0%) was 0.740% and the Moisture adsorption amount ([1]; relative humidity 40.0%) was 0.639%. It also gave a Moisture desorption amount ([1]; relative humidity 40.0%) of 0.830%, a Moisture adsorption amount ([1]; relative humidity 45.0%) of 0.719% and a Moisture desorption amount ([1]; relative humidity 45.0%) of 0.917%. The Moisture adsorption amount ([1]; relative humidity 50.0%) was 0.798%, the Moisture desorption amount ([1]; relative humidity 50.0%) was 0.989% and the Moisture adsorption amount ([1]; relative humidity 55.0%) was 0.867%. It also gave a Moisture desorption amount ([1]; relative humidity 55.0%) of 1.052%, a Moisture adsorption amount ([1]; relative humidity 60.0%) of 0.925% and a Moisture desorption amount ([1]; relative humidity 60.0%) of 1.113%. The Moisture adsorption amount ([1]; relative humidity 65.0%) was 1.003%, the Moisture desorption amount ([1]; relative humidity 65.0%) was 1.179% and the Moisture adsorption amount ([1]; relative humidity 70.0%) was 1.070%. It also gave a Moisture desorption amount ([1]; relative humidity 70.0%) of 1.237%, a Moisture adsorption amount ([1]; relative humidity 75.0%) of 1.150% and a Moisture desorption amount ([1]; relative humidity 75.0%) of 1.288%. It also gave a Moisture adsorption amount ([1]; relative humidity 80.0%) of 1.196%, a Moisture desorption amount ([1]; relative humidity 80.0%) of 1.314% and a Moisture adsorption amount ([1]; relative humidity 85.0%) of 1.266%. For the same compound, the Moisture desorption amount ([1]; relative humidity 85.0%) was 1.369%, the Moisture adsorption amount ([1]; relative humidity 90.0%) was 1.350% and the Moisture desorption amount ([1]; relative humidity 90.0%) was 1.407%. For the same compound, the Moisture adsorption amount ([1]; relative humidity 95.0%) was 1.426%, the Moisture desorption amount ([1]; relative humidity 95.0%) was 1.426% and the “solid stability (in words)” value [2] was “excellent in solid stability under any conditions”. The “impurities detected at a retention time of 17.527 minutes, increase with respect to standard product (in words)” value [3] was “increase in impurities could be greatly suppressed”.
